Laboratory results published in US4904669A, “Thiazolo/4,5-c/quinolines as major tranquilizers” (EGIS Gyogyszergyar, priority 1985, dated 1990).

Legend:
[1] = tested on: Benzodiazepine (BZD) receptor; experiment: Benzodiazepine (BZD) receptor binding, displacement of 3H-diazepam; details: crude cortical membrane, 1 hr at 0° C., pH 6.8; control drug
Protocol: 10. For the Studies of Benzodiazepine (BZD) Receptor Binding crude cortical membrane preparation was used. 2/ μM ^3 H-diazepam was incubated with the membrane for 1 hr at 0° C. in TRIS-citrate buffer, pH 6.8. Specific binding was determined in the presence of 10/ μM diazepam. In displacement studies chlordiazepoxid was used as control drug.

[2] = tested on: conditioned reflex (CR) / unconditioned reflex (UR); experiment: Screening test, learning and retention during one session conditioning; assay type: in vivo, rats
Protocol: I was elaborated for studing learning and retention of rats during one session conditioning.
During conditioning rats are trained to jump onto the top of glass cylinder by the electric foot-shock (110 V). The escape reaction (unconditioned reflex, UR) is paired with a bell as conditioned stimulus. The criterion of learning is that conditioned reflex (CR) should be elicited 10 times with 10 s intervals without reinforcement. Retention of CR is taken positive when 24 h following the experiment CR can be elicited. In these experiments animals are distributed into 4 categories on the basis of their learning ability.

[3] = tested on: conditioned avoidance reflex (CAR); experiment: Shuttle-box, acquisition of two-way conditioned avoidance reflex (CAR); assay type: in vivo
Protocol: The acquisition of a two-way conditioned avoidance reflex (CAR) was analyzed in the shuttle-box during 5 consecutive days.
The instrument was constructed by the Research Institute for Electrical Industry (Hungary). It consists of six boxes, each is separated inside by a barrier with a small gate in the middle. […] They were given 100 trials per day. One trial consisted of 15 s intertrial interval, followed by 15 s CS. The last 5 s of CS overlapped the […]. At each learning session the number of CAR and intersignal reactions (IR) was automatically counted and evaluated by multiway analysis of variance (ANOVA).

pain reactions = experiment: Hot plate test; assay type: in vivo, rats; details: Rattus norvegicus, 56° C. plate, 1 h after administration
Protocol: The method of Woolfe and McDonald (1944) modified by Porszasz and Herr (1950) was used. The effect of each dose of the drugs was checked on a group of 10 rats. The experiments were performed on metal plates maintained at 56° C. The latency time of pain reactions was determined prior to and 1 h after the administration of the test compound. It was regarded as 100% effect if the reaction time was prolonged by more than 2.5 times the control value.

writhing = experiment: Writhing test (peritoneal), acetic acid; assay type: in vivo; details: Mus musculus, mice, acetic acid i.p.
Protocol: The method originally described by […] (1956) for rats modified by Witkin et al. (1961) and Koster and Anderson (1959), respectively, for mice was applied. Each dose was administered to a group of ten mice and after 20 min. 60 mg/kg of 0.6% acetic acid solution was injected i.p. As a result of chemical irritation of the peritoneum a characteristic writhing can be observed in 90% of control animals. Ten animals treated with compounds under test were kept under observation for 20 min. following i.p. injection of acid. The analgetic effect of individual doses was expressed in per cent: [formula] The denominator was taken as 90% on the basis of preliminary control examination and the […] literature.

[4] = Acute toxicity (Litchfield and Wilcoxon); details: rat, in vivo, deaths within 48 h

CNC1=Nc2ccc(Cl)cc2C(c2ccccc2)=[N+]([O-])C1 [Chlordiazepoxide]
displacement of 3H-diazepam on the receptor [1]: displaced ^3 H-diazepam on the receptor in concentration dependent manner | inhibition of development of conditioned reflex ([2]; 10 mg/kg): does not influence | number of negative responses (f) ([3]; 10 mg/kg, in words): increased | acquisition of conditioned reflex ([3]; 10 and 5 mg/kg): unchanged | intersignal reactions (IR) ([3]; 10 and 5 mg/kg, in words): unchanged | intersignal reactions (IR) ([3]; s.c., 5 mg/kg, day 1): 10.8 | negative responses (-f) ([3]; s.c., 5 mg/kg, day 1): 11.8 | positive responses (F), acquisition of conditioned reflex ([3]; s.c., 5 mg/kg, day 1): 23.1 | intersignal reactions (IR) ([3]; s.c., 5 mg/kg, day 2): 14.0 | negative responses (-f) ([3]; s.c., 5 mg/kg, day 2): 9.1 | positive responses (F), acquisition of conditioned reflex ([3]; s.c., 5 mg/kg, day 2): 38.7 | intersignal reactions (IR) ([3]; s.c., 5 mg/kg, day 3): 8.9 | negative responses (-f) ([3]; s.c., 5 mg/kg, day 3): 10.2 | positive responses (F), acquisition of conditioned reflex ([3]; s.c., 5 mg/kg, day 3): 35.6 | intersignal reactions (IR) ([3]; s.c., 5 mg/kg, day 4): 6.7 | negative responses (-f) ([3]; s.c., 5 mg/kg, day 4): 14.9 | positive responses (F), acquisition of conditioned reflex ([3]; s.c., 5 mg/kg, day 4): 41.1 | intersignal reactions (IR) ([3]; s.c., 5 mg/kg, day 5): 4.2 | negative responses (-f) ([3]; s.c., 5 mg/kg, day 5): 13.0 | positive responses (F), acquisition of conditioned reflex ([3]; s.c., 5 mg/kg, day 5): 50.8 | intersignal reactions (IR) ([3]; s.c., 10 mg/kg, day 1): 10.8 | negative responses (-f) ([3]; s.c., 10 mg/kg, day 1): 32.7 | positive responses (F), acquisition of conditioned reflex ([3]; s.c., 10 mg/kg, day 1): 19.9 | intersignal reactions (IR) ([3]; s.c., 10 mg/kg, day 2): 14.7 | negative responses (-f) ([3]; s.c., 10 mg/kg, day 2): 22.8 | positive responses (F), acquisition of conditioned reflex ([3]; s.c., 10 mg/kg, day 2): 37.9 | intersignal reactions (IR) ([3]; s.c., 10 mg/kg, day 3): 8.1 | negative responses (-f) ([3]; s.c., 10 mg/kg, day 3): 31.8 | positive responses (F), acquisition of conditioned reflex ([3]; s.c., 10 mg/kg, day 3): 33.7 | intersignal reactions (IR) ([3]; s.c., 10 mg/kg, day 4): 6.3 | negative responses (-f) ([3]; s.c., 10 mg/kg, day 4): 36.5 | positive responses (F), acquisition of conditioned reflex ([3]; s.c., 10 mg/kg, day 4): 35.6 | intersignal reactions (IR) ([3]; s.c., 10 mg/kg, day 5): 6.1 | negative responses (-f) ([3]; s.c., 10 mg/kg, day 5): 40.8 | positive responses (F), acquisition of conditioned reflex ([3]; s.c., 10 mg/kg, day 5): 41.2 | intersignal reactions (IR) ([3]; s.c., 25 mg/kg, day 1): 6.8 | negative responses (-f) ([3]; s.c., 25 mg/kg, day 1): 74.0 | positive responses (F), acquisition of conditioned reflex ([3]; s.c., 25 mg/kg, day 1): 9.7 | intersignal reactions (IR) ([3]; s.c., 25 mg/kg, day 2): 7.3 | negative responses (-f) ([3]; s.c., 25 mg/kg, day 2): 67.5 | positive responses (F), acquisition of conditioned reflex ([3]; s.c., 25 mg/kg, day 2): 12.2 | intersignal reactions (IR) ([3]; s.c., 25 mg/kg, day 3): 6.2 | negative responses (-f) ([3]; s.c., 25 mg/kg, day 3): 67.0 | positive responses (F), acquisition of conditioned reflex ([3]; s.c., 25 mg/kg, day 3): 17.9 | intersignal reactions (IR) ([3]; s.c., 25 mg/kg, day 4): 8.2 | negative responses (-f) ([3]; s.c., 25 mg/kg, day 4): 65.6 | positive responses (F), acquisition of conditioned reflex ([3]; s.c., 25 mg/kg, day 4): 20.0 | intersignal reactions (IR) ([3]; s.c., 25 mg/kg, day 5): 6.0 | negative responses (-f) ([3]; s.c., 25 mg/kg, day 5): 59.8 | positive responses (F), acquisition of conditioned reflex ([3]; s.c., 25 mg/kg, day 5): 21.4

c1ccc2c(c1)ncc1ncsc12 [Thiazolo[4,5-c]quinoline-ethanesulfonate, thiazolo[4,5-c]quinoline-ethanesulfonate]
ED50 (pain reactions; po): 72 mg/kg | ED50 (pain reactions; sc): 8 mg/kg | ED50 (writhing; po): 70 mg/kg | ED50 (writhing; sc): 56 mg/kg | intersignal reactions (IR) ([3]; s.c., 10 mg/kg, day 1): 6.5 | negative responses (-f) ([3]; s.c., 10 mg/kg, day 1): 17.2 | positive responses (F), acquisition of conditioned reflex ([3]; s.c., 10 mg/kg, day 1): 23.5 | intersignal reactions (IR) ([3]; s.c., 10 mg/kg, day 2): 8.8 | negative responses (-f) ([3]; s.c., 10 mg/kg, day 2): 7.1 | positive responses (F), acquisition of conditioned reflex ([3]; s.c., 10 mg/kg, day 2): 44.2 | intersignal reactions (IR) ([3]; s.c., 10 mg/kg, day 3): 5.5 | negative responses (-f) ([3]; s.c., 10 mg/kg, day 3): 2.4 | positive responses (F), acquisition of conditioned reflex ([3]; s.c., 10 mg/kg, day 3): 51.6 | intersignal reactions (IR) ([3]; s.c., 10 mg/kg, day 4): 8.2 | negative responses (-f) ([3]; s.c., 10 mg/kg, day 4): 1.2 | positive responses (F), acquisition of conditioned reflex ([3]; s.c., 10 mg/kg, day 4): 66.8 | intersignal reactions (IR) ([3]; s.c., 10 mg/kg, day 5): 6.3 | negative responses (-f) ([3]; s.c., 10 mg/kg, day 5): 6.2 | positive responses (F), acquisition of conditioned reflex ([3]; s.c., 10 mg/kg, day 5): 65.1 | intersignal reactions (IR) ([3]; s.c., 25 mg/kg, day 1): 11.1 | negative responses (-f) ([3]; s.c., 25 mg/kg, day 1): 70.3 | positive responses (F), acquisition of conditioned reflex ([3]; s.c., 25 mg/kg, day 1): 8.1 | intersignal reactions (IR) ([3]; s.c., 25 mg/kg, day 2): 8.8 | negative responses (-f) ([3]; s.c., 25 mg/kg, day 2): 41.8 | positive responses (F), acquisition of conditioned reflex ([3]; s.c., 25 mg/kg, day 2): 25.3 | intersignal reactions (IR) ([3]; s.c., 25 mg/kg, day 3): 7.0 | negative responses (-f) ([3]; s.c., 25 mg/kg, day 3): 40.4 | positive responses (F), acquisition of conditioned reflex ([3]; s.c., 25 mg/kg, day 3): 23.3 | intersignal reactions (IR) ([3]; s.c., 25 mg/kg, day 4): 10.3 | negative responses (-f) ([3]; s.c., 25 mg/kg, day 4): 46.3 | positive responses (F), acquisition of conditioned reflex ([3]; s.c., 25 mg/kg, day 4): 30.8 | intersignal reactions (IR) ([3]; s.c., 25 mg/kg, day 5): 4.0 | negative responses (-f) ([3]; s.c., 25 mg/kg, day 5): 61.3 | positive responses (F), acquisition of conditioned reflex ([3]; s.c., 25 mg/kg, day 5): 15.5 | intersignal reactions (IR) ([3]; s.c., 50 mg/kg, day 1): 9.2 | negative responses (-f) ([3]; s.c., 50 mg/kg, day 1): 66.8 | positive responses (F), acquisition of conditioned reflex ([3]; s.c., 50 mg/kg, day 1): 8.9 | intersignal reactions (IR) ([3]; s.c., 50 mg/kg, day 2): 7.1 | negative responses (-f) ([3]; s.c., 50 mg/kg, day 2): 35.2 | positive responses (F), acquisition of conditioned reflex ([3]; s.c., 50 mg/kg, day 2): 24.5 | intersignal reactions (IR) ([3]; s.c., 50 mg/kg, day 3): 4.2 | negative responses (-f) ([3]; s.c., 50 mg/kg, day 3): 51.5 | positive responses (F), acquisition of conditioned reflex ([3]; s.c., 50 mg/kg, day 3): 20.8 | intersignal reactions (IR) ([3]; s.c., 50 mg/kg, day 4): 3.3 | negative responses (-f) ([3]; s.c., 50 mg/kg, day 4): 61.8 | positive responses (F), acquisition of conditioned reflex ([3]; s.c., 50 mg/kg, day 4): 14.6 | intersignal reactions (IR) ([3]; s.c., 50 mg/kg, day 5): 2.6 | negative responses (-f) ([3]; s.c., 50 mg/kg, day 5): 72.8 | positive responses (F), acquisition of conditioned reflex ([3]; s.c., 50 mg/kg, day 5): 16.2 | LD50 at 48 h ([4]; iv): 51 mg/kg | LD50 at 48 h ([4]; po, starved 16 h): 290 mg/kg | LD50 at 48 h ([4]; sc): 280 mg/kg

Cl.c1ccc2c(c1)ncc1ncsc12 [Thiazolo[4,5-c]quinoline-hydrochloride, thiazolo[4,5-c]quinoline-hydrochloride]
ED50 (pain reactions; po): 60 mg/kg | ED50 (pain reactions; sc): 7.5 mg/kg | inhibition of development of conditioned reflex ([2]; 10 mg/kg): strong inhibition | inhibition of development of conditioned reflex ([2]; 25 mg/kg): complete inhibition | ED50 (writhing; po): 82 mg/kg | ED50 (writhing; sc): 32 mg/kg | LD50 at 48 h ([4]; iv): 55 mg/kg | LD50 at 48 h ([4]; po, starved 16 h): 350 mg/kg | LD50 at 48 h ([4]; sc): 260 mg/kg

O=C(CCCN1CCC(O)(c2ccc(Cl)cc2)CC1)c1ccc(F)cc1 [haloperidol, reference compound]
inhibition of developing conditioned reflex ([2]; 0.025 mg/kg): strong inhibition
